Assay results as given in publication PMC7763444, “Bioactive Steroids from the Red Sea Soft Coral Sinularia polydactyla” (Marine Drugs, 2020).

Legend:
[1] = test system: BJ (human normal fibroblasts)
Procedure: (§1) Initially, the cytotoxic activity of metabolites 3–7, 9–12, 14–20, and 22–26 was evaluated in human cancer and normal cells after 72 h of treatment. Human cervical cancer (HeLa), human breast adenocarcinoma (MCF7) cell lines, and human normal fibroblasts (BJ) were used for the screening.
(§2) In cytotoxicity assays, cancer cells were treated with six different concentrations of each tested compound for 72 h. Cells were stained with resazurin and IC50 values were calculated as previously reported [26]. Triplicates from at least three independent experiments were used.

[2] = in vitro; settings: human
Procedure: as §1, §2

[3] = test system: HeLa (human cervical cancer cell line); experiment: Cytotoxicity, resazurin assay, 72 h; settings: read-out: Cytotoxicity (IC50) HeLa
Procedure: as §1
(§3) The tested compounds were dissolved in DMSO to afford 10 mM stock solutions. Human cervical carcinoma (HeLa) and human breast adenocarcinoma (MCF7) cell lines were purchased from European Collection of Authenticated Cell Cultures (ECACC, Salisbury, UK) and cultivated in Dulbecco’s Modified Eagle Medium (DMEM) (Merck, Darmstadt, Germany), as previously reported [27]. […] All cells were maintained in a humidified CO2 incubator at 37 °C using the standard trypsinization procedure twice or three times a week. […] All cells were maintained in a humidified CO2 incubator at 37 °C using the standard trypsinization procedure twice or three times a week.
as §2

[4] = test system: MCF7 (human breast adenocarcinoma cell line); experiment: Cytotoxicity, resazurin assay, 72 h; settings: MCF7, 72 h, read-out: Cytotoxicity (IC50) MCF7
Procedure: as §1, §3, §2

[5] = test system: human umbilical vein endothelial cells (HUVEC); experiment: Migration scratch assay; format: cell-based; settings: 20 µM, 20 h of treatment
Procedure: Subsequently, we examined whether the isolated steroids could influence angiogenesis or inflammation in vitro. […] Only non-cytotoxic concentrations in HUVECs were used for the scratch assay.
The scratch test was performed with HUVEC cells and evaluated after 20 h of treatment, as previously reported.

[6] = test system: neuron-like SH-SY5Y cells; experiment: Cell death in 3-NPA model, propidium iodide (PI) assay; format: cell-based, human; settings: maximal effect at 10 µM, with 20 mM 3-NPA, 48 h
Procedure: In order to evaluate the potential neuroprotective effect of the compounds, neuroblastoma cell line SH-SY5Y was differentiated for 48 h and further exposed to 20 mM 3-nitropropionic acid (3-NPA) as an agent mimicking Huntington’s disease in vitro [25]. 3-NPA was used alone or in co-treatment with the tested compounds at concentrations of 0.1–10 µM. […] In general, PI as a positively charged dye is associated with an increase of cell damage or death, since it penetrates cells with cell-disrupted membranes. Within the 3-NPA model, its toxic effect was considered as 100% of the PI signal and thus reduction of cell death was determined.
N-acetylcysteine (NAC) was used as a positive control. * p compared with vehicle with 20 mM 3-NPA, # p compared with vehicle without 20 mM 3-NPA.
Cell death of SH-SY5Y cells (20,000 cells/well) was determined using the propidium iodide (PI) assay according to Stone et al. with a slight modification. […] The resulting fluorescence of 3-NPA toxin was considered as 100% cell death. In the assays, neuron-like cells were treated with the tested compounds in 0.1–10 µM concentration range for 48 h. DMSO-treated cells (≤0.1% v/v) were used as healthy controls.

[7] = test system: androgen receptor (AR); experiment: AR-transcriptional reporter assay (luciferase) in 22Rv1-ARE14 cells; settings: 24 h; for Luciferase activity (AR-mediated transcription), in words: six concentrations, already at submicromolar concentrations
Procedure: Therefore, we further analyzed the influence of the isolated steroids on AR-mediated transcription. […] Control cells were grown in charcoal-stripped serum medium (CSS). Cells were stimulated with either 1 nM methyltrienolone R1881 (R) or with the tested compounds in six different concentrations for 24 h in CSS. The luciferase activity was measured in the cell lysate. […] The experiment was repeated three times in triplicates.
AR-transcriptional reporter assays were performed on 22Rv1-ARE14 cells after 24 h of incubation, as previously described [22].

[8] = Cytotoxicity, resazurin assay, 72 h; settings: human, BJ cells (human normal fibroblasts)
Procedure: as §1, §2

SMILES | IC50 at 72 h [2] | IC50 [3] | IC50 [4] | also measured
CC(C)C(C)/C=C\[C@@H](C)[C@H]1CC[C@H]2[C@]3(O)CC[C@H]4[C@H](C)[C@@H](O)CC[C@]4(C)[C@H]3[C@@H](O)[C@H](O)[C@]12C (stereo partly drawn) [Compound 14, (22Z)-4α,24ξ-dimethyl-5α-cholest-22-en-3β,8β,11β,12α-tetraol] | > 50 µM | > 50 µM | 29.1 ± 5 µM | Cytotoxicity toward normal cells (BJ), in words [1]: absence of cytotoxicity
CC(C)[C@@H](C)/C=C/[C@@H](C)[C@H]1CC[C@H]2[C@@H]3CC[C@H]4[C@H](C)[C@@H](O)CC[C@]4(C)[C@H]3CC[C@]12C [Compound 4, (22E,24R)-4α,24-dimethyl-5α-cholest-22-en-3β-ol] | > 50 µM | > 50 µM | > 50 µM | –
C=C(CCC(C)C1CCC2C3C(O)C=C4CC(O)CCC4(C)C3CCC12C)C(C)C (stereo not drawn) [Compound 18, 24-methyl-cholesta-5,24(28)-dien-3β,7β-diol] | > 50 µM | 22.6 ± 0.4 µM | 28.6 ± 5.3 µM | Cytotoxicity toward normal cells (BJ), in words [1]: absence of cytotoxicity
C=C(CCC(C)C1CCC2C3=CC(O)C4(O)CC(O)CCC4(C)C3CCC21C)C(C)C (stereo not drawn) [Compound 25, 24-methyl-cholesta-7,24(28)-dien-3β,5α,6β-triol] | > 50 µM | > 50 µM | > 50 µM | –
C=C(C(=O)CC(C)C1CCC2C1(C)CC(O)C1C3(C)CCC(O)C(C)C3CCC21O)C(C)C (stereo not drawn) [Compound 11, 23-oxo-4α,24-dimethyl-5α-cholest-24(28)-en-3β,8β,11β-triol] | > 50 µM | 18.8 ± 6.4 µM | 21.7 ± 1.4 µM | Inhibition of HUVEC migration [5]: partially inhibited; Effect on cell death (PI assay), in words [6]: significantly reduced cell death; Cytotoxicity toward normal cells (BJ), in words [1]: absence of cytotoxicity; Rank of AR inhibition ([7]; 10 µM): strongest inhibition of AR; Luciferase activity (AR-mediated transcription), in words [7]: clearly reduced luciferase activity in a dose-dependent manner
CC(=O)O[C@H]1C=C2C[C@@H](O)CC[C@]2(CO)[C@H]2CC[C@]3(C)[C@@H]([C@H](C)CCCC(C)C)CC[C@H]3[C@H]12 [Compound 23, 7β-acetoxy-cholest-5-en-3β,19-diol] | 14.5 ± 3.9 µM | 12 ± 1.7 µM | 11.2 ± 0.5 µM | Inhibition of HUVEC migration [5]: partially inhibited; Effect on cell death (PI assay), in words [6]: significantly reduced cell death
CC(C)[C@@H](C)/C=C/[C@@H](C)[C@H]1CC[C@H]2C3=C[C@@H](O)[C@@]4(O)C[C@@H](O)CC[C@]4(C)[C@H]3CC[C@]12C [Compound 26, (22E,24R)-24-methyl-cholesta-7,22-dien-3β,5α,6β-triol] | > 50 µM | > 50 µM | > 50 µM | –
C=C(CCC(C)C1CCC2C3C(=O)C=C4CC(O)CCC4(CO)C3CCC12C)C(C)C (stereo not drawn) [Compound 24, 7-oxo-24-methyl-cholesta-5,24(28)-dien-3β,19-diol] | 45.9 ± 2.8 µM | 21.4 ± 2 µM | 31.7 ± 0.3 µM | –
C=C(CCC(C)C1CCC2C3CC=C4CC(O)CCC4(C)C3CCC12C)C(C)C (stereo not drawn) [Compound 17, 24-methyl-cholesta-5,24(28)-dien-3β-οl] | – | > 50 µM | > 50 µM | IC50 at 72 h [8]: > 50 µM
C=C(CCC(C)C1CCC2C3CCC4C(C)C(O)CCC4(C)C3CCC12C)C(C)C (stereo not drawn) [Compound 3, 4α,24-dimethyl-5α-cholest-24(28)-en-3β-οl] | > 50 µM | > 50 µM | > 50 µM | –
CC(C)[C@@H](C)/C=C/[C@@H](C)[C@H]1CC[C@H]2[C@]3(O)CC[C@H]4[C@H](C)[C@@H](O)CC[C@]4(C)[C@H]3CC[C@]12CO [Compound 16, (22E,24R)-4α,24-dimethyl-5α-cholest-22-en-3β,8β,18-triol] | 23.2 ± 1.4 µM | 32.9 ± 5.2 µM | 33.8 ± 1 µM | Concentration dependence of AR inhibition [7]: increased inhibition of AR; Luciferase activity (AR-mediated transcription), in words [7]: clearly reduced luciferase activity in a dose-dependent manner
C=C(C=CC(C)C1CCC2C3CC=C4CC(O)CCC4(CO)C3CCC12C)C(C)C (stereo not drawn) [Compound 20, (22E)-24-methyl-cholesta-5,22,24(28)-trien-3β,19-diol] | > 50 µM | > 50 µM | > 50 µM | Concentration dependence of AR inhibition [7]: increased inhibition of AR; Luciferase activity (AR-mediated transcription), in words [7]: clearly reduced luciferase activity in a dose-dependent manner
C=C(C(C)C)C(CC(C)C1CCC2C1(C)CC(O)C1C3(C)CCC(O)C(C)C3CCC21O)OC(C)=O (stereo not drawn) [Compound 12, 23ξ-acetoxy-4α,24-dimethyl-5α-cholest-24(28)-en-3β,8β,11β-triol] | > 50 µM | 15.7 ± 2 µM | 25.3 ± 6.5 µM | Inhibition of HUVEC migration [5]: partially inhibited; Cytotoxicity toward normal cells (BJ), in words [1]: absence of cytotoxicity; Luciferase activity (AR-mediated transcription), in words [7]: clearly reduced luciferase activity in a dose-dependent manner
C=C(C(=O)CC(C)C1CCC2C1(C)CCC1C3(C)CCC(O)C(C)C3CCC21O)C(C)C (stereo not drawn) [Compound 7, 23-oxo-4α,24-dimethyl-5α-cholest-24(28)-en-3β,8β-diol] | > 50 µM | > 50 µM | > 50 µM | –
CC(C)[C@@H](C)/C=C/[C@@H](C)[C@H]1CC[C@@H]2[C@]1(C)C[C@H](O)[C@@H]1[C@@]3(C)CC[C@H](O)[C@@H](C)[C@@H]3CC[C@@]21O [Compound 10, (22E,24R)-4α,24-dimethyl-5α-cholest-22-en-3β,8β,11β-triol] | 4.1 ± 1.9 µM | 32.9 ± 6.8 µM | 32.7 ± 1.3 µM | Concentration dependence of AR inhibition [7]: increased inhibition of AR
C=C(CCC(C)C1CCC2C3CC=C4CC(O)CCC4(CO)C3CCC12C)C(C)C (stereo not drawn) [Compound 19, 24-methyl-cholesta-5,24(28)-dien-3β,19-diol] | > 50 µM | > 50 µM | > 50 µM | –
CC(C)[C@@H](C)/C=C/[C@@H](C)[C@H]1CC[C@@H]2[C@]1(C)CC[C@@H]1[C@@]3(C)CC[C@H](O)[C@@H](C)[C@@H]3CC[C@@]21O [Compound 6, (22E,24R)-4α,24-dimethyl-5α-cholest-22-en-3β,8β-diol] | > 50 µM | > 50 µM | > 50 µM | –
C[C@]12CC[C@H](O)CC1=CC[C@@H]1[C@@H]2CC[C@]2(C)C(n3cnc4ccccc43)=CC[C@@H]12 [Galeterone, reference compound] | – | – | – | Inhibition of AR-regulated transcription ([7]; 10 µM, 22Rv1-ARE14): 22%
C=C(CCC(C)C1CCC2C1(C)CC(O)C1C3(C)CCC(O)C(C)C3CCC21O)C(C)C (stereo not drawn) [Compound 9, 4α,24-dimethyl-5α-cholest-24(28)-en-3β,8β,11β-triol] | 18.3 ± 4 µM | 25.9 ± 4.9 µM | 36.4 ± 5.7 µM | –
C=C(CCC(C)C1CCC2C1(C)CCC1C3(C)CCC(O)C(C)C3CCC21O)C(C)C (stereo not drawn) [Compound 5, 4α,24-dimethyl-5α-cholest-24(28)-en-3β,8β-diol] | > 50 µM | > 50 µM | > 50 µM | –
C=C(CCC(C)C1CCC2C3(O)CCC4C(C)C(O)CCC4(C)C3CCC12CO)C(C)C (stereo not drawn) [Compound 15, 4α,24-dimethyl-5α-cholest-24(28)-en-3β,8β,18-triol] | > 50 µM | 19 ± 4.3 µM | 18.9 ± 0.1 µM | Cytotoxicity toward normal cells (BJ), in words [1]: absence of cytotoxicity
